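96-well plates; 48 h exposure; 5 concentrations. Endpoints by linear interpolation between flanking doses. Not reached: highest tested concentration assigned. GI50: concentration for 50% inhibition of growth. At the TGI there is no net growth.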
Experiments:
Assay in all cases: DTP human tumour cell line panel, 48 h
ACHN renal = tested on: ACHN renal
IGROV1 ovarian = tested on: IGROV1 ovarian
K-562 leukemia = tested on: K-562 leukemia
NCI-H23 lung = tested on: NCI-H23 lung
OVCAR-8 ovarian = tested on: OVCAR-8 ovarian
SK-MEL-2 melanoma = tested on: SK-MEL-2 melanoma
SK-MEL-28 melanoma = tested on: SK-MEL-28 melanoma
SK-OV-3 ovarian = tested on: SK-OV-3 ovarian
UO-31 renal = tested on: UO-31 renal
LOX IMVI melanoma = tested on: LOX IMVI melanoma

Row | Structure (SMILES) | TGI (ACHN renal) | TGI (IGROV1 ovarian) | TGI (K-562 leukemia) | TGI (NCI-H23 lung) | TGI (OVCAR-8 ovarian) | TGI (SK-MEL-2 melanoma) | TGI (SK-MEL-28 melanoma) | TGI (SK-OV-3 ovarian) | TGI (UO-31 renal) | GI50 (ACHN renal) | GI50 (IGROV1 ovarian) | GI50 (K-562 leukemia) | GI50 (LOX IMVI melanoma) | TGI (LOX IMVI melanoma) | GI50 (NCI-H23 lung) | GI50 (OVCAR-8 ovarian) | GI50 (SK-MEL-2 melanoma) | GI50 (SK-MEL-28 melanoma) | GI50 (UO-31 renal) | GI50 (SK-OV-3 ovarian)
1 | CSc1cccc(-n2c3nc(=O)n(C)c(=O)c-3nc3ccccc32)c1 | 13.2 µM | 36 µM | 32.5 µM | 70.3 µM | 57.6 µM | 31.1 µM | 37.3 µM | 96 µM | 32.9 µM |  |  |  |  |  |  |  |  |  |  | 
2 | N=C(N)c1ccc(OCCOCCOc2ccc(C(=N)N)cc2)cc1 | > 100 µM | > 100 µM | > 100 µM | > 100 µM | > 100 µM | > 100 µM | > 100 µM |  | > 100 µM | > 100 µM | > 100 µM | 63.3 µM | > 100 µM | > 100 µM | 78 µM | 31.4 µM | 38.2 µM | 77 µM | 71.5 µM | 
3 | COc1ccc(NC(=O)CC(=O)N2N=C(N(CCC#N)c3ccccc3Cl)CC2c2ccccc2)cc1 (centres undefined) | > 100 µM | > 100 µM | > 100 µM | > 100 µM | > 100 µM | > 100 µM | > 100 µM |  | > 100 µM |  |  |  |  | > 100 µM |  |  |  |  |  | 
4 | CC(=O)Oc1cc(C)c2c(c1OC(C)=O)CC1(O2)[C@@H](C)CCC2[C@@]3(C)CC[C@H](OC(C)=O)C(C)(C)C3CC[C@]21C (some centres undefined) | 7.63 µM | 4.49 µM |  | 11.5 µM | 13.7 µM |  | 15.9 µM | 25.5 µM | 3.93 µM |  |  |  |  | 14 µM |  |  |  |  |  | 
5 | COC(=O)C1=C(C)NC(C)=C(C(=O)OC)C1/C=C(\Cl)c1ccc(Cl)c(Cl)c1 | 25.5 µM | 28.9 µM | 40.3 µM | 31 µM | > 100 µM |  | 27.7 µM | 49 µM | 27.1 µM | 12.8 µM | 15.5 µM | 10.6 µM | 11.4 µM | 23.5 µM | 16.8 µM | 36.1 µM |  | 13.2 µM | 13.9 µM | 21.1 µM
6 | O=C(Nc1ccc(F)cc1)Nc1ccccc1CNc1nc(Nc2ccc(OCCN3CCCC3)cc2)ncc1Cl | 3.15 µM | 13.3 µM | 3.06 µM | 13.1 µM | 12.2 µM | 18.4 µM | 1.78 µM |  | 1.49 µM | 1.26 µM | 5.27 µM | 1.2 µM | 0.914 µM | 1.69 µM | 5.63 µM | 1.83 µM | 8.7 µM | 0.899 µM | 0.742 µM | 
7 | Cc1oc2c(C)c3oc(=O)cc(C)c3cc2c1CNC(=O)[C@@H]1OCCOCCOCCOCCOCCOC1C(=O)O (some centres undefined) | > 100 µM | > 100 µM | > 100 µM | > 100 µM | > 100 µM |  |  | > 100 µM | > 100 µM |  |  |  |  | > 100 µM |  |  |  |  |  | 
8 | CCCCCCCC(=O)NCC(O)CNC(=O)CCCCCCC |  | > 100 µM | > 100 µM | > 100 µM | > 100 µM |  |  | > 100 µM | > 100 µM |  |  |  |  | > 100 µM |  |  |  |  |  | 
9 | CCN1/C(=C/C=C/c2n(-c3ccccc3)c3ccc(-c4nc5ccccc5s4)cc3[n+]2CC)N(c2ccccc2)c2ccc(-c3nc4ccccc4s3)cc21 | > 50 µM | > 50 µM | > 50 µM | 5.08 µM | 5.82 µM | 2.85 µM | 5.82 µM |  | 3.57 µM | 0.622 µM | 0.75 µM | 0.471 µM | 1.22 µM | > 50 µM | 0.533 µM | 0.304 µM | 0.89 µM | 0.488 µM | 0.622 µM | 
10 | Cn1c2c(c3ccccc31)CCN(CCN1CCN(c3ccccc3)CC1)C2=O | > 100 µM | > 100 µM | > 100 µM | > 100 µM | > 100 µM |  | > 100 µM | > 100 µM | > 100 µM |  |  |  |  | > 100 µM |  |  |  |  |  | 
11 | COc1cc2c(cc1OCCCCCOc1cc3c(cc1OC)C(=O)N1CC(F)C[C@H]1C=N3)N=C[C@@H]1CC(F)CN1C2=O (some centres undefined) | 0.167 µM |  | 1.94 µM | 0.394 µM | 2.06 µM |  | 8.45 µM | 46.5 µM | 4.64 µM | < 0.0169 µM | 0.0599 µM | 0.0325 µM |  |  | < 0.0373 µM | 0.138 µM | 0.279 µM | 0.424 µM | 0.315 µM | 0.327 µM
12 | Cc1cc(NCCCNc2ccnc3cc(Cl)ccc23)nc(N2CCN(C)CC2)n1 | 21 µM | 39.9 µM | 11.7 µM | 28.6 µM | 44 µM |  | 3.67 µM | 45.6 µM | 24 µM | 3.71 µM | 8.14 µM | 1.86 µM | 2 µM | 5.2 µM | 5.9 µM | 7.76 µM |  | 1.84 µM | 4.05 µM | 7.66 µM
13 | N#C/C(=N\Nc1ccc(Cl)cc1)C(=O)Nc1cc(-c2ccccc2)nn1-c1ccccc1 | > 100 µM | > 100 µM | > 100 µM | > 100 µM | > 100 µM | 8.89 µM | > 100 µM | 6.66 µM | > 100 µM | 2.84 µM | 4.12 µM | 1.72 µM |  |  | 2.65 µM | 2.96 µM | 2.39 µM | 3.62 µM | 2.93 µM | 2.28 µM
